Measurements as given in the supplement of paper PMC7840683.
Structures can show the parent of a compound that is named as a salt. ± gives the standard deviation of the averaged measurements.

System: HepaRG
Assay: LDH release cytotoxicity, % of total lysis control; higher = more cytotoxic
Details: 48 h
In short: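 Duplicate wells of single-lot HepaRG cells, grown on collagen I-coated 96-well plates, received eight-point half-log series of test chemicals with 100 µM as the top concentration. Exposure lasted 48 h in serum-free induction medium with 0.5% DMSO, while total lysis wells received 0.1% Triton X. Resorufin fluorescence (CytoTox-ONE, Tecan Safire) was used to quantify LDH leaked into 50 µL of spent medium. Values for percent cytotoxicity were normalized to on-plate vehicle and total lysis controls and averaged across the duplicates.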

NC(=O)O [Ammonium carbamate]
Details | LDH release cytotoxicity [%]
0.031623 µM | -0.98 ± 0.56
0.1 µM | -2.14 ± 1.1
0.316228 µM | -3.38 ± 0.37
1 µM | -2.11 ± 1.4
3.16228 µM | -2.31 ± 0.54
10 µM | -1.92 ± 0.74
31.6228 µM | -0.516 ± 0.34
100 µM | 0.311 ± 0.094

CCCCCOC(=O)COc1cc(N2C(=O)C3=C(CCCC3)C2=O)c(F)cc1Cl [Flumiclorac-pentyl]
Details | LDH release cytotoxicity [%]
0.03162 µM | -1.94 ± 0.45
0.1 µM | -1.12 ± 1.1
0.3162278 µM | -0.329 ± 0.33
1 µM | -1.17 ± 0.56
3.16228 µM | -0.793 ± 0.22
10 µM | -0.278 ± 0.39
31.6228 µM | -1.05 ± 0.035
100 µM | 0.436 ± 0.073

COc1cc(C(C)C)c2c(c1)S(=O)(=O)N(COc1cc(=O)n3cccc(OCCN4CCCCC4)c3n1)C2=O
Details | LDH release cytotoxicity [%]
0.0079057 µM | 0.0307 ± 1.5
0.025 µM | 0.0794 ± 0.093
0.0790569 µM | 0.357 ± 0.16
0.25 µM | -0.592 ± 0.34
0.790569 µM | -0.444 ± 0.69
2.5 µM | -0.335 ± 0.28
7.90569 µM | -0.231 ± 0.07
25 µM | 14.2 ± 0.87

NCc1cccc(C2CCN(C(=O)c3ccc(C#Cc4ccccc4F)o3)CC2)c1 [AVE5638]
Details | LDH release cytotoxicity [%]
0.03162 µM | 0.161 ± 0.38
0.1 µM | 0.0623 ± 0.48
0.3162278 µM | 0.0711 ± 0.39
1 µM | 0.0437 ± 0.62
3.16228 µM | 0.441 ± 0.0046
10 µM | 0.359 ± 0.33
31.6228 µM | 3.69 ± 0.52
100 µM | 65.1 ± 7.6

CCCCCCc1ccc(O)cc1O [4-Hexylresorcinol]
Details | LDH release cytotoxicity [%]
0.03162 µM | -1.87 ± 0.26
0.1 µM | -0.709 ± 0.041
0.3162278 µM | -0.736 ± 1.1
1 µM | -1.64 ± 0.45
3.16228 µM | -1.6 ± 1
10 µM | -1.36 ± 0.29
31.6228 µM | 0.152 ± 0.4
100 µM | 1.18 ± 0.84

CCC(C)Nc1c([N+](=O)[O-])cc(C(C)(C)C)cc1[N+](=O)[O-] (configuration not stated) [Butralin]
Details | LDH release cytotoxicity [%]
0.031623 µM | -1.24 ± 0.48
0.1 µM | -2.37 ± 1.2
0.316228 µM | -1.26 ± 1
1 µM | -1.89 ± 1.2
3.16228 µM | -2.08 ± 0.85
10 µM | -2.15 ± 1.1
31.6228 µM | -1.93 ± 1.3
100 µM | -1.58 ± 0.34

O=[N+]([O-])C(Br)(CO)CO [Bronopol]
Details | LDH release cytotoxicity [%]
0.031623 µM | -1.83 ± 0.79
0.1 µM | -3.38 ± 2.4
0.316228 µM | -2.69 ± 1.3
1 µM | -3.3 ± 0.87
3.16228 µM | -3.31 ± 0.59
10 µM | -2.52 ± 1.9
31.6228 µM | -0.61 ± 0.22
100 µM | 0.628 ± 0.21

CNC(=S)S [Metam-sodium hydrate]
Details | LDH release cytotoxicity [%]
0.03162 µM | -0.462 ± 0.042
0.1 µM | -0.61 ± 0.22
0.3162278 µM | -0.991 ± 0.45
1 µM | -1.25 ± 0.15
3.16228 µM | -0.486 ± 0.41
10 µM | -0.405 ± 0.015
31.6228 µM | -0.218 ± 0.1
100 µM | 1.15 ± 0.05

c1ccc2c(c1)-c1cccc3cccc-2c13 [Fluoranthene]
Details | LDH release cytotoxicity [%]
0.03162 µM | -1.36 ± 0.16
0.1 µM | -0.258 ± 0.61
0.3162278 µM | -0.857 ± 0.079
1 µM | -0.0961 ± 0.27
3.16228 µM | -0.593 ± 0.16
10 µM | -0.226 ± 0.011
31.6228 µM | -0.969 ± 0.3
100 µM | -2.77 ± 0.41

CCCCCCCCCC(=O)O [Decanoic acid]
Details | LDH release cytotoxicity [%]
0.03162 µM | -1.36 ± 0.57
0.1 µM | -2.46 ± 0.9
0.3162278 µM | -1.69 ± 0.25
1 µM | -1.7 ± 0.25
3.16228 µM | -1.42 ± 0.15
10 µM | -1.16 ± 0.079
31.6228 µM | -0.917 ± 0.64
100 µM | -0.408 ± 0.48

OCC1OC2OC3C(CO)OC(OC4C(CO)OC(OC5C(CO)OC(OC6C(CO)OC(OC7C(CO)OC(OC1C(O)C2O)C(O)C7O)C(O)C6O)C(O)C5O)C(O)C4O)C(O)C3O (stereo not drawn) [alpha-Cyclodextrin]
Details | LDH release cytotoxicity [%]
0.016602 µM | -2.18 ± 0.47
0.0525 µM | -2.3 ± 0.3
0.16602 µM | -1.73 ± 1.5
0.525 µM | -2.65 ± 2
1.6602 µM | -2.1 ± 0.45
5.25 µM | -1.71 ± 0.9
16.601958 µM | -1.44 ± 0.78
52.5 µM | 0.413 ± 1.5

COP(=O)(OC)OC(C)=CC(=O)N(C)C [Dicrotophos]
Details | LDH release cytotoxicity [%]
0.03162 µM | -2.01 ± 0.28
0.1 µM | -1.23 ± 0.051
0.3162278 µM | -1.47 ± 0.12
1 µM | -2.46 ± 0.19
3.16228 µM | -1.22 ± 0.6
10 µM | -0.345 ± 0.14
31.6228 µM | 1.7 ± 0.058
100 µM | -0.538 ± 0.6

C=C(C)C1Cc2c(ccc3c2OC2COc4cc(OC)c(OC)cc4C2C3=O)O1 (configuration not stated) [Rotenone]
Details | LDH release cytotoxicity [%]
0.03162 µM | -3.41 ± 0.1
0.1 µM | -3.52 ± 0.84
0.3162278 µM | -4.58 ± 0.21
1 µM | 4.61 ± 1.4
3.16228 µM | 19.6 ± 4.5
10 µM | 48.4 ± 1.8
31.6228 µM | 71.8 ± 1.5
100 µM | 72.3 ± 0.95

CCCCOCCO [2-Butoxyethanol]
Details | LDH release cytotoxicity [%]
0.03162 µM | -2.12 ± 0.86
0.1 µM | -0.886 ± 1
0.3162278 µM | -1.1 ± 1.1
1 µM | -2.21 ± 0.073
3.16228 µM | -1.06 ± 0.48
10 µM | -0.332 ± 0.52
31.6228 µM | -0.824 ± 0.64
100 µM | 1.02 ± 0.18

CC(=O)NC1(c2cccc(F)c2)CCN(CCC2(c3ccc(Cl)c(Cl)c3)CN(c3ccccc3)C(=O)CO2)CC1 (configuration not stated)
Details | LDH release cytotoxicity [%]
0.03162 µM | -0.672 ± 1.2
0.1 µM | -0.672 ± 0.82
0.3162278 µM | -0.643 ± 0.17
1 µM | -0.552 ± 0.44
3.16228 µM | -0.767 ± 0.35
10 µM | -0.38 ± 0.15
31.6228 µM | 0.499 ± 0.37
100 µM | 3.41 ± 1.2

CCCC(=O)OCCC(C)C [Isopentyl butyrate]
Details | LDH release cytotoxicity [%]
0.03162 µM | 0.497 ± 0.0082
0.1 µM | -0.72 ± 1.4
0.3162278 µM | -0.446 ± 0.5
1 µM | -0.671 ± 1.2
3.16228 µM | 0.184 ± 1.4
10 µM | 0.168 ± 0.62
31.6228 µM | 0.438 ± 0.51
100 µM | 1.65 ± 0.66

CCc1cccc(C)c1N(C(=O)CCl)C(C)COC (configuration not stated) [Metolachlor]
Details | LDH release cytotoxicity [%]
0.03162 µM | -2.35 ± 0.41
0.1 µM | -1.88 ± 0.93
0.3162278 µM | -2.04 ± 0.75
1 µM | -1.88 ± 0.4
3.16228 µM | -1.33 ± 0.23
10 µM | -1.85 ± 1.5
31.6228 µM | -1.51 ± 0.46
100 µM | -1.21 ± 0.023

CCc1cc(C2=C(C(=O)O)N(c3ccccc3C(F)(F)F)S(=O)(=O)c3ccccc32)cc2c1OCO2 [Fandosentan potassium salt]
Details | LDH release cytotoxicity [%]
0.03162 µM | -0.538 ± 1.3
0.1 µM | -0.00891 ± 0.054
0.3162278 µM | -0.491 ± 0.64
1 µM | -0.769 ± 1.1
3.16228 µM | -0.525 ± 0.42
10 µM | -0.587 ± 0.47
31.6228 µM | 2.28 ± 1.1
100 µM | 48.4 ± 0.95

CCOC(=O)c1ccc(C2CCC(NCC(O)COc3ccc(O)c(NS(C)(=O)=O)c3)CC2)cc1 (configuration not stated)
Details | LDH release cytotoxicity [%]
0.03162 µM | -1.1 ± 0.76
0.1 µM | -1.92 ± 0.32
0.3162278 µM | -1.82 ± 0.24
1 µM | -2.5 ± 0.6
3.16228 µM | -1.76 ± 0.12
10 µM | -1.05 ± 0.85
31.6228 µM | -1.59 ± 0.16
100 µM | -0.279 ± 0.043
